Among the test systems are MOLT-4 leukemia; TK-10 renal; HCT-15 colon; MDA-MB-231 breast; U251 CNS; SF-539 CNS; K-562 leukemia; HL-60(TB) leukemia; NCI-H522 lung; M14 melanoma; SN12C renal; UACC-62 melanoma; HT29 colon; SNB-75 CNS; SK-MEL-28 melanoma; HOP-62 NSCLC.
Assay in all cases: NCI anticancer screen, dose series, 48 h

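Five compound concentrations were applied to cells in 96-well plates for 48 hours; endpoints were derived by simple linear interpolation of the resulting dose-response curve. TGI: total growth inhibition.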

With `COc1ccc(NC(=O)/C(=N/NC(N)=S)C2C(=O)NC(=S)NC2=O)c(OC)c1`, the TGI with MOLT-4 leukemia, in the test on TK-10 renal, in the test on HCT-15 colon, in the test on MDA-MB-231 breast, in the test with U251 CNS and in the test on SF-539 CNS was more than 100 µM each time. Further, the TGI in the test on K-562 leukemia, in the test on HL-60(TB) leukemia, in the test on NCI-H522 lung, with M14 melanoma, in the test on SN12C renal and in the test with UACC-62 melanoma was more than 100 µM in each case. Also, the TGI with HT29 colon, with SNB-75 CNS and in the test with SK-MEL-28 melanoma was more than 100 µM throughout.

`O=C(Nc1ccccc1)n1[nH]c(=O)n(-c2ccccc2)c1=O`: the TGI with TK-10 renal, in the test on HCT-15 colon, with MDA-MB-231 breast, in the test with U251 CNS, in the test with SF-539 CNS and with K-562 leukemia was more than 100 µM in each case. For the same compound, the TGI in the test on HL-60(TB) leukemia, in the test with NCI-H522 lung, with SN12C renal, in the test on UACC-62 melanoma, with HT29 colon and in the test on SNB-75 CNS was more than 100 µM each time. The compound further showed a TGI with SK-MEL-28 melanoma of more than 100 µM.

As for `CC(C)(C)c1ccc(-n2c3nc(=O)n(-c4ccccc4CO)c(=O)c-3cc3ccccc32)cc1`, the TGI with MOLT-4 leukemia was 57.2 µM; with TK-10 renal, more than 100 µM; in the test with HCT-15 colon, more than 100 µM; in the test with MDA-MB-231 breast, more than 100 µM; in the test on U251 CNS, more than 100 µM; with SF-539 CNS it was 88.1 µM. Further, the TGI in the test on K-562 leukemia is more than 100 µM; in the test with HL-60(TB) leukemia it was 56.1 µM; in the test on NCI-H522 lung it was more than 100 µM; with M14 melanoma, more than 100 µM; in the test on SN12C renal, more than 100 µM; with UACC-62 melanoma, more than 100 µM. The TGI in the test with HT29 colon was 86.8 µM; in the test on SNB-75 CNS, more than 100 µM; in the test on SK-MEL-28 melanoma, more than 100 µM.

In the case of `COC(=O)c1c2c(cc3c1CC1(Cc4ccc(C(C)=O)cc4C1)C3)CCC2` (configuration not stated), the TGI in the test with MOLT-4 leukemia is 86.5 µM; in the test with TK-10 renal, more than 100 µM; in the test on HCT-15 colon, more than 100 µM; with MDA-MB-231 breast, more than 100 µM; with U251 CNS, more than 100 µM; in the test on SF-539 CNS, more than 100 µM. In addition, the TGI was more than 100 µM in the test on K-562 leukemia; more than 100 µM in the test on HL-60(TB) leukemia; more than 100 µM in the test with NCI-H522 lung; more than 100 µM in the test with SN12C renal; more than 100 µM in the test on UACC-62 melanoma; 89 µM with HT29 colon. For the same compound, the TGI in the test with HOP-62 NSCLC, with SNB-75 CNS and in the test on SK-MEL-28 melanoma was more than 100 µM in each case.

For `COc1cccc(N2C(=O)/C(=C\c3ccccc3)SC2c2cc(OC)c(OC)c(OC)c2)c1` (configuration not stated), the TGI in the test on MOLT-4 leukemia, with TK-10 renal, in the test on HCT-15 colon, in the test on MDA-MB-231 breast, in the test on U251 CNS and in the test on K-562 leukemia was more than 100 µM in each case. Besides, the TGI in the test with HL-60(TB) leukemia, with NCI-H522 lung, in the test with M14 melanoma, in the test with SN12C renal, in the test on UACC-62 melanoma and in the test on HT29 colon was more than 100 µM in each case. In addition, the values for the TGI in the test with HOP-62 NSCLC, in the test on SNB-75 CNS and in the test on SK-MEL-28 melanoma were more than 100 µM, 57.3 µM and more than 100 µM, respectively.

As for `COC(=O)C1(C(=O)OC)Cc2ccc(C)cc2C2=C1C(=O)c1ccccc1C2=O`, the TGI was 31.7 µM in the test on MOLT-4 leukemia; more than 100 µM in the test with TK-10 renal; 30.1 µM in the test on HCT-15 colon; 33 µM with MDA-MB-231 breast; 61.8 µM with SF-539 CNS; 46.5 µM in the test on K-562 leukemia. Moreover, the TGI in the test with HL-60(TB) leukemia is more than 100 µM; in the test with NCI-H522 lung, 32 µM; in the test with SN12C renal, 48.1 µM; in the test on UACC-62 melanoma, 35.8 µM; in the test with HT29 colon, 62.2 µM; in the test with HOP-62 NSCLC, 29 µM. Moreover, the TGI with SNB-75 CNS came out at 32.2 µM; with SK-MEL-28 melanoma, 32.5 µM.

With `S=C1CSc2c(ccc3ccccc23)N1`, the TGI with MOLT-4 leukemia, in the test on TK-10 renal, in the test on HCT-15 colon, with MDA-MB-231 breast, in the test on U251 CNS and in the test with K-562 leukemia was more than 100 µM in each case. Moreover, the TGI in the test on HL-60(TB) leukemia, in the test with NCI-H522 lung, with M14 melanoma, in the test with SN12C renal, in the test on UACC-62 melanoma and in the test on HT29 colon was more than 100 µM in each case. For the same compound, the TGI with HOP-62 NSCLC, with SNB-75 CNS and with SK-MEL-28 melanoma was more than 100 µM each time.

As for `Nc1[nH]c(=S)c2c(N)n[nH]c2c1C(=O)Nc1ccccc1`, the TGI in the test with MOLT-4 leukemia, with TK-10 renal, with HCT-15 colon, with MDA-MB-231 breast, with U251 CNS and in the test with SF-539 CNS was more than 100 µM in each case. In addition, the TGI in the test on K-562 leukemia, in the test on HL-60(TB) leukemia, with NCI-H522 lung, with M14 melanoma, in the test on SN12C renal and in the test with UACC-62 melanoma was more than 100 µM each time. Moreover, the TGI in the test with HT29 colon, in the test on SNB-75 CNS and in the test on SK-MEL-28 melanoma was more than 100 µM each time.

(Values after PubChem BioAssay (NCI).)
